Experimental data reported in ChEMBL document CHEMBL5728557, “Azetidine derivative, preparation method therefor, and use thereof” (2021).

Assays:
[1] = molecular target: Voltage-gated inwardly rectifying potassium channel KCNH2 (Homo sapiens, UniProt Q12809); experiment: Safety Test: The effect of test compounds on hERG potassium channel were determined using Predictor hERG Fluorescence Polarization Assay at concentrations of 3, 10, and 30 μM.
Cytochrome P450 1A2 = molecular target: T1, Cytochrome P450 1A2 (Homo sapiens, UniProt P05177); experiment: (§1) As such, the compound of the present invention has no significant inhibitory effect on CYP1A2, CYP2D6 and CYP3A4, and thus has no safety issue caused by metabolism interactions among different drugs due to inhibition of the enzymes.
T1 sequence (P05177 whole entry): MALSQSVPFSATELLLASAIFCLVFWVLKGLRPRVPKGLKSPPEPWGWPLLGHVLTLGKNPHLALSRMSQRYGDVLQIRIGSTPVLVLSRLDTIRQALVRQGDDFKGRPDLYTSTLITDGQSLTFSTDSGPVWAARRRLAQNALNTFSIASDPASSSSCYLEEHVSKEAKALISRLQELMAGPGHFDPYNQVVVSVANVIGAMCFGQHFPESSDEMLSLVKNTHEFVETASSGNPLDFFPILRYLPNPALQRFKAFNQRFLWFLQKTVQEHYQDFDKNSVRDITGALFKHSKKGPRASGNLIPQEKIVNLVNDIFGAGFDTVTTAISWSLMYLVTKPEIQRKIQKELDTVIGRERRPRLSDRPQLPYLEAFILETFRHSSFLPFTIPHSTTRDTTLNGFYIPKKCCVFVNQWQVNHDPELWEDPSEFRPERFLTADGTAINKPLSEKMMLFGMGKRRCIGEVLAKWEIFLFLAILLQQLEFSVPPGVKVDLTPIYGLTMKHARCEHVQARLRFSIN

CYP3A4 = CYP3A4 (Homo sapiens, UniProt P08684); experiment: as §1
CYP2D6 = CYP2D6 (Homo sapiens, UniProt P10635); experiment: as §1
Chain of CYP2D6 (P10635 whole entry): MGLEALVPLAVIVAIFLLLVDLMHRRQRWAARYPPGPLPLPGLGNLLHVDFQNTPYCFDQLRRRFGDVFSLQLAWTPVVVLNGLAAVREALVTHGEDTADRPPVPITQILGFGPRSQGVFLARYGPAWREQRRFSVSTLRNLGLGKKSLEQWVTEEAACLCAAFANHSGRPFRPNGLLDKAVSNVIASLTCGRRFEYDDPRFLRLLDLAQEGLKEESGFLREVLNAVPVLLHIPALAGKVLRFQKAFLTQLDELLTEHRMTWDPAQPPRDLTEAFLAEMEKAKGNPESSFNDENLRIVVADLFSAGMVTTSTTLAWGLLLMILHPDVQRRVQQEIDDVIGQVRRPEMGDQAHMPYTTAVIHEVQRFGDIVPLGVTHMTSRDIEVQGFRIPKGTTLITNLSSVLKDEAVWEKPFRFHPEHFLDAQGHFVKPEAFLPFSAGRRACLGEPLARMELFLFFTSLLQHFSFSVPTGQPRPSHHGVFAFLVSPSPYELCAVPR

Chain of Voltage-gated inwardly rectifying potassium channel KCNH2 (Q12809 whole entry): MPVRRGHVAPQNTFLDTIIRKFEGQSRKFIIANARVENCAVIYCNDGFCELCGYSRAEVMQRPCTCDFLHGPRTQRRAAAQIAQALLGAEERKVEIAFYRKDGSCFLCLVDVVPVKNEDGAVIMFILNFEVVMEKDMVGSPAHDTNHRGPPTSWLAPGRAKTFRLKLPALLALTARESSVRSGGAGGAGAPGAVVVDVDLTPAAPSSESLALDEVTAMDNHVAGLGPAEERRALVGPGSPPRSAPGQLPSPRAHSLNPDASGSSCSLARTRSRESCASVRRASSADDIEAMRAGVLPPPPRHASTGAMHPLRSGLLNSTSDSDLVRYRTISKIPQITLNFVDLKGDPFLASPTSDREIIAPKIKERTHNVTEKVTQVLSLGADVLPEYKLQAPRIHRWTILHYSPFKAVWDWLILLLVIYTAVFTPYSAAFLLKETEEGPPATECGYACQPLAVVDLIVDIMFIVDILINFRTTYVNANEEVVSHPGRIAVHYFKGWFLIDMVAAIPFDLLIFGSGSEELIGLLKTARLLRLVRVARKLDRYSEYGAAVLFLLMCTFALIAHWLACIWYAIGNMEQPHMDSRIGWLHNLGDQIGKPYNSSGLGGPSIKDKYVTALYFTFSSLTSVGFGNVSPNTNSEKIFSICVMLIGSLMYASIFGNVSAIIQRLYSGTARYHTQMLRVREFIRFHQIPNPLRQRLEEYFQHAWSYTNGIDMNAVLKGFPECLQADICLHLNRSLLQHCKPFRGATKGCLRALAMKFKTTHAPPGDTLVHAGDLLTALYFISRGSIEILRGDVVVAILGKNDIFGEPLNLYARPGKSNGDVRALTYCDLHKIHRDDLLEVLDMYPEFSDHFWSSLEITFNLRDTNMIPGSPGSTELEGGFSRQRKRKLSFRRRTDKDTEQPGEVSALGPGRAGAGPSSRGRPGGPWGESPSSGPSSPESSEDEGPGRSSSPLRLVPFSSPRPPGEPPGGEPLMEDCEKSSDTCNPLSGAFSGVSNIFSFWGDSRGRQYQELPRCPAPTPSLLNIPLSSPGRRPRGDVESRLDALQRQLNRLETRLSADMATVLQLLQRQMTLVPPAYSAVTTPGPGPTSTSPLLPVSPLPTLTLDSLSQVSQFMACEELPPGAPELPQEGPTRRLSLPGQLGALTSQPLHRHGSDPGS
Chain of CYP3A4 (P08684 whole entry): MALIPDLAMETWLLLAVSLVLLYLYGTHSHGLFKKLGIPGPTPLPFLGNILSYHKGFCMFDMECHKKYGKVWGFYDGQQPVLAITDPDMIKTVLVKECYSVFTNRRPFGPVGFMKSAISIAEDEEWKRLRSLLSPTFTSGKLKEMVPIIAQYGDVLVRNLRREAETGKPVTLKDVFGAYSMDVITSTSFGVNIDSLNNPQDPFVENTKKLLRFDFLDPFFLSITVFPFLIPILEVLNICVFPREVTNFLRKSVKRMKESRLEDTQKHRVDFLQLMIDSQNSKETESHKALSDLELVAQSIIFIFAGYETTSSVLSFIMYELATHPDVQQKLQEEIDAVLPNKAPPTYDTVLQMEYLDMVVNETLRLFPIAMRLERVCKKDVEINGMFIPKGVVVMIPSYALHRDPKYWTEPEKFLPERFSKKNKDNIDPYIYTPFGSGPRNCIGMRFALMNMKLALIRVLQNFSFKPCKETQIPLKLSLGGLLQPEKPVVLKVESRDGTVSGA

Molecule `Cc1nn(C2(CC#N)CN(S(=O)(=O)C(C)C)C2)cc1-c1ncnc2[nH]ccc12` has an IC50 [1] of over 30 µM, an IC50 (Cytochrome P450 1A2) of over 10 µM and an IC50 (CYP3A4) of over 10 µM. For the same molecule, the IC50 (CYP2D6) was over 10 µM.
